The subject of one experiment is EGFR^del19+T790M+C797S. Kind of experiment: EGFR protein degradation test (Western blot) in Ba/F3 cells expressing mutant EGFR del19+T790M+C797S (DTC). Particulars: compounds at 0.1 μM and 1 μM, 24 hours, Western blot with EGFR antibody. Format: cell-based. Here is the method: (§1) The ability of the compounds of the present invention to degrade the mutant EGFR protein was confirmed in Ba/F3 cells expressing normal EGFR, mutant EGFR^del19+T790M+C797S or mutant EGFR^L858R+T790M+C797S. A Western blot test using the EGFR antibody was performed.
(§2) Specifically, Ba/F3 cells expressing EGFR were cultured in RPMI 1640 (Gibco, NY, USA) containing 10% fetal bovine serum (FBS, Gibco, NY, USA). Cells expressing normal EGFR, mutant EGFR^del19+T790M+C797S or mutant EGFR^L858R+T790M+C797S were treated with the compounds of the present invention at concentrations of 0.1 μM and 1 μM, respectively, for 24 hours. After that, it was washed twice with phosphate buffered saline (PBS) and SDS-PAGE was performed with 30 μg of cell lysate. After the protein separated on the gel was transferred to a nitrocellulose membrane, the expression level of the EGFR protein was confirmed using an EGFR antibody (Santa Cruz biotechnology, Santacruz, CA, USA). EGFR bands separated by Western blotting were quantitatively analyzed with Fluo-S MultiImager (Bio-Rad, Hercules, CA, USA).
(In general: A western blot detects proteins with antibodies after separation by electrophoresis.)

The target in the next experiment is T1, EGFR^L858R+T790M+C797S (Homo sapiens, UniProt P00533, C797S/L858R/T790M).
T1 construct: expressed in transfected cells; host or cells: Ba/F3
T1 sequence (P00533 25-1210 T790M/C797S/L858R): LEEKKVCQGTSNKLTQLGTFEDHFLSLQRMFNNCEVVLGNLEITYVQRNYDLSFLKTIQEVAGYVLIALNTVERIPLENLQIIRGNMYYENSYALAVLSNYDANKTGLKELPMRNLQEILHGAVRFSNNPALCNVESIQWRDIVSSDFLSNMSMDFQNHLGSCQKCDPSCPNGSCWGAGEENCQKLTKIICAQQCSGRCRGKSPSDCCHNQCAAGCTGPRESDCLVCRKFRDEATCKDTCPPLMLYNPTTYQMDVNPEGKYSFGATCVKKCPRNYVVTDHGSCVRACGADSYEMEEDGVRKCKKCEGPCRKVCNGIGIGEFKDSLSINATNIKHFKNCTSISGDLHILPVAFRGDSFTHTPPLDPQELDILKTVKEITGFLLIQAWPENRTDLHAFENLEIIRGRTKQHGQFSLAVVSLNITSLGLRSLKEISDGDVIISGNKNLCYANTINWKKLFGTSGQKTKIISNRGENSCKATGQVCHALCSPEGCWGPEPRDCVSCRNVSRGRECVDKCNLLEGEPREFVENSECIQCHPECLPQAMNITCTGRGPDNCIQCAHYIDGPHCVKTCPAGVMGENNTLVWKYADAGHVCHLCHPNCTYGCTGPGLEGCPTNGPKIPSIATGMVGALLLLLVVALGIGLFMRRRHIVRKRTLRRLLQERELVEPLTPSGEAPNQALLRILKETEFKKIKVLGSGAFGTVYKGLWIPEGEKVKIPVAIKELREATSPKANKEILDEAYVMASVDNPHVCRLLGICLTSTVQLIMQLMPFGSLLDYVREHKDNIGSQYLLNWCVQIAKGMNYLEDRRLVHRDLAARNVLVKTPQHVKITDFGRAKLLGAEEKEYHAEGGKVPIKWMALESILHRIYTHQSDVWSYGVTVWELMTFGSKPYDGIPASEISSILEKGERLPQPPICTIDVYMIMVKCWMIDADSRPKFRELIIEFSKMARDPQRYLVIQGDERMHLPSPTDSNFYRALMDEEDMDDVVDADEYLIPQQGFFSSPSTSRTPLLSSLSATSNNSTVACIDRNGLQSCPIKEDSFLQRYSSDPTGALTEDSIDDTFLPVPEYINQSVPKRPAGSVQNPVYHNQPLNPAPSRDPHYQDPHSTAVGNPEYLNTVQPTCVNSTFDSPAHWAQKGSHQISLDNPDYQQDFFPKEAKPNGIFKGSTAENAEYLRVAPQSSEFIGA
Kind of experiment: EGFR protein degradation test (Western blot) in Ba/F3 cells expressing mutant EGFR L858R+T790M+C797S (LTC). In kind it is cell-based. Particulars: compounds at 0.1 μM and 1 μM, 24 hours, Western blot with EGFR antibody. On the procedure: as §1, §2

Each structure is given as a SMILES string.

Consider `CN(c1ccccc1Nc1nc(Nc2ccc(N3CCN(CCN4CC(Oc5cccc6c5CN(C5CCC(=O)NC5=O)C6=O)C4)CC3)c(F)c2)ncc1Cl)S(C)(=O)=O` (centres unmarked) [Compound 39, N-(2-((5-chloro-2-((4-(4-(2-(3-((2-(2,6-dioxopiperidin-3-yl)-1-oxoisoindolin-4-yl)oxy)azetidin-1-yl)ethyl)piperazin-1-yl)-3-fluorophenyl)amino)pyrimidin-4-yl)amino)phenyl)-N-methylmethanesulfonamide], for which the “DTC (EGFR^del19+T790M+C797S) protein degradation” value (“DTC” for short) in the experiment on EGFR^del19+T790M+C797S is recorded as “+ (Protein degradation 20~80%)”. Moreover, the “LTC (EGFR^L858R+T790M+C797S) protein degradation” value (from here on “LTC”) on EGFR^L858R+T790M+C797S is “+ (Protein degradation 20~80%)”.

Take `COc1cc(N2CCN(CC3CCN(C(=O)CNc4ccc5c(c4)C(=O)N(C4CCC(=O)NC4=O)C5=O)CC3)CC2)ccc1Nc1ncc(Cl)c(Nc2ccccc2N(C)S(C)(=O)=O)n1` (centres unmarked) [Compound 66, N-(2-((5-chloro-2-((4-(4-((1-((2-(2,6-dioxopiperidin-3-yl)-1,3-dioxoisoindolin-5-yl)glycyl)piperidin-4-yl)methyl)piperazin-1-yl)-2-methoxyphenyl)amino)pyrimidin-4-yl)amino)phenyl)-N-methylmethanesulfonamide]: in the experiment with EGFR^del19+T790M+C797S, the “DTC” value is “++ (Protein degradation > 80%)”. The “LTC” value at EGFR^L858R+T790M+C797S is recorded as “++ (Protein degradation > 80%)”.

Consider `CN(c1ccccc1Nc1nc(Nc2ccc(N3CCC(N4CCN(Cc5ccc6c(c5)C(=O)N(C5CCC(=O)NC5=O)C6=O)CC4)CC3)c(F)c2)ncc1Cl)S(C)(=O)=O` (centres unmarked) [Compound 42, N-(2-((5-chloro-2-((4-(4-(4-((2-(2,6-dioxopiperidin-3-yl)-1,3-dioxoisoindolin-5-yl)methyl)piperazin-1-yl)piperidin-1-yl)-3-fluorophenyl)amino)pyrimidin-4-yl)amino)phenyl)-N-methylmethanesulfonamide], for which the “DTC” value in the experiment with EGFR^del19+T790M+C797S was “+ (Protein degradation 20~80%)”. Moreover, the “LTC” value on EGFR^L858R+T790M+C797S is recorded as “− (Protein degradation < 20%)”.

On to `COc1cc(N2CCN(CC3CCN(CC(=O)Nc4cccc5c4C(=O)N(C4CCC(=O)NC4=O)C5=O)CC3)CC2)ccc1Nc1ncc(Cl)c(Nc2ccccc2N(C)S(C)(=O)=O)n1` (centres unmarked) [Compound 25, 2-(4-((4-(4-((5-chloro-4-((2-(N-methylmethylsulfonamido)phenyl)amino)pyrimidin-2-yl)amino)-3-methoxyphenyl)piperazin-1-yl)methyl)piperidin-1-yl)-N-(2-(2,6-dioxopiperidin-3-yl)-1,3-dioxoisoindolin-4-yl)acetamide], for which the “DTC” value in the experiment on EGFR^del19+T790M+C797S was “− (Protein degradation < 20%)”. For the same compound, at EGFR^L858R+T790M+C797S, the “LTC” value is “− (Protein degradation < 20%)”.

Consider `COc1cc(N2CCC3(CCN(CCC(=O)Nc4cccc5c4C(=O)N(C4CCC(=O)NC4=O)C5=O)CC3)CC2)ccc1Nc1ncc(Cl)c(Nc2ccccc2N(C)S(C)(=O)=O)n1` (centres unmarked) [Compound 30, 3-(9-(4-((5-chloro-4-((2-(N-methylmethylsulfonamido)phenyl)amino)pyrimidin-2-yl)amino)-3-methoxyphenyl)-3,9-diazaspiro[5,5]undecan-3-yl)-N-(2-(2,6-dioxopiperidin-3-yl)-1,3-dioxoisoindolin-4-yl)propanamide], for which, in the experiment with EGFR^del19+T790M+C797S, the “DTC” value is listed as “− (Protein degradation < 20%)”. For the same compound, the “LTC” value on EGFR^L858R+T790M+C797S is on record as “− (Protein degradation < 20%)”.

In the case of `COc1cc(N2CCC(N(C)CCCCOc3cccc4c3C(=O)N(C3CCC(=O)NC3=O)C4=O)CC2)ccc1Nc1ncc(Cl)c(Nc2ccccc2N(C)S(C)(=O)=O)n1` (centres unmarked) [Compound 3, N-(2-((5-chloro-2-((4-(4-((4-((2-(2,6-dioxopiperidin-3-yl)-1,3-dioxoisoindolin-4-yl)oxy)butyl)(methyl)amino)piperidin-1-yl)-2-methoxyphenyl)amino)pyrimidin-4-yl)amino)phenyl)-N-methylmethanesulfonamide], the “DTC” value in the experiment with EGFR^del19+T790M+C797S is reported as “− (Protein degradation < 20%)”. Besides, the “LTC” value at EGFR^L858R+T790M+C797S is reported as “− (Protein degradation < 20%)”.

Regarding `COc1cc(N2CCN(CCCCC(=O)N[C@H](C(=O)N3C[C@H](O)C[C@@H]3C(=O)NCc3ccc(-c4scnc4C)cc3)C(C)(C)C)CC2)ccc1Nc1ncc(Cl)c(Nc2ccccc2N(C)S(C)(=O)=O)n1` [Compound 6, (2R,4R)-1-((S)-2-(5-(4-(4-((5-chloro-4-((2-(N-methylmethylsulfonamido)phenyl)amino)pyrimidin-2-yl)amino)-3-methoxyphenyl)piperazin-1-yl)pentanamido)3,3-dimethylbutanoyl)4-hydroxy-N-(4-(4-methylthiazol-5-yl)benzyl)pyrrolidin-2-carboxamide], in the experiment with EGFR^del19+T790M+C797S, the “DTC” value was “+ (Protein degradation 20~80%)”. The “LTC” value at EGFR^L858R+T790M+C797S was “− (Protein degradation < 20%)”.

Regarding `COc1cc(N2CCC(N3CCN(CCCCC(=O)Nc4cccc5c4C(=O)N(C4CCC(=O)NC4=O)C5=O)CC3)CC2)ccc1Nc1ncc(Cl)c(Nc2ccccc2N(C)S(C)(=O)=O)n1` (centres unmarked) [Compound 2, 5-(4-(1-(4-((5-chloro-4-((2-(N-methylmethylsulfonamido)phenyl)amino)pyrimidin-2-yl)amino)-3-methoxyphenyl)piperidin-4-yl)piperazin-1-yl)-N-(2-(2,6-dioxopiperidin-3-yl)-1,3-dioxoisoindolin-4-yl)pentanamide], in the experiment with EGFR^del19+T790M+C797S, the “DTC” value is “+ (Protein degradation 20~80%)”. Also, the “LTC” value on EGFR^L858R+T790M+C797S is “− (Protein degradation < 20%)”.

With `COc1cc(N2CCC(CN3CCN(c4ccc5c(c4)C(=O)N(C4CCC(=O)NC4=O)C5=O)CC3)CC2)ccc1Nc1ncc(Cl)c(Nc2ccccc2N(C)S(C)(=O)=O)n1` (centres unmarked) [Compound 67, N-(2-((5-chloro-2-((4-(4-((4-(2-(2,6-dioxopiperidin-3-yl)-1,3-dioxoisoindolin-5-yl)piperazin-1-yl)methyl)piperidin-1-yl)-2-methoxyphenyl)amino)pyrimidin-4-yl)amino)phenyl)-N-methylmethanesulfonamide], the “DTC” value in the experiment on EGFR^del19+T790M+C797S is “− (Protein degradation < 20%)”. Moreover, on EGFR^L858R+T790M+C797S, the “LTC” value is reported as “++ (Protein degradation > 80%)”.

Turning to `COc1cc(N2CCC(N3CCN(CC(=O)Nc4cccc5c4C(=O)N(C4CCC(=O)NC4=O)C5=O)CC3)CC2)ccc1Nc1ncc(Cl)c(Nc2ccccc2N(C)S(C)(=O)=O)n1` (centres unmarked) [Compound 21, 2-(4-(1-(4-((5-chloro-4-((2-(N-methylmethylsulfonamido)phenyl)amino)pyrimidin-2-yl)amino)-3-methoxyphenyl)piperidin-4-yl)piperazin-1-yl)-N-(2-(2,6-dioxopiperidin-3-yl)-1,3-dioxoisoindolin-4-yl)acetamide], the “DTC” value in the experiment with EGFR^del19+T790M+C797S is given as “− (Protein degradation < 20%)”. Also, the “LTC” value on EGFR^L858R+T790M+C797S is on record as “− (Protein degradation < 20%)”.

Turning to `COc1cc(N2CCN(CC3CCN(CC(=O)N[C@H](C(=O)N4C[C@H](O)CC4C(=O)NCc4ccc(-c5scnc5C)cc4)C(C)C)CC3)CC2)ccc1Nc1ncc(Cl)c(Nc2ccccc2N(C)S(C)(=O)=O)n1` (stereo in doubt) [Compound 56, (2R,4R)-1-((2-(4-((4-(4-((5-chloro-4-((2-(N-methylmethylsulfonamido)phenyl)amino)pyrimidin-2-yl)amino)-3-methoxyphenyl)piperazin-1-yl)methyl)piperidin-1-yl)acetyl)-L-valyl)-4-hydroxy-N-(4-(4-methylthiazol-5-yl)benzyl)pyrrolidin-2-carboxamide], in the experiment on EGFR^del19+T790M+C797S, the “DTC” value is “+ (Protein degradation 20~80%)”. Further, at EGFR^L858R+T790M+C797S, the “LTC” value is on record as “− (Protein degradation < 20%)”.

Turning to `COc1cc(N2CCC(CN3CCC(CNc4ccc5c(c4)C(=O)N(C4CCC(=O)NC4=O)C5=O)CC3)CC2)ccc1Nc1ncc(Cl)c(Nc2ccccc2N(C)S(C)(=O)=O)n1` (centres unmarked) [Compound 63, N-(2-((5-chloro-2-((4-(4-((4-(((2-(2,6-dioxopiperidin-3-yl)-1,3-dioxoisoindolin-5-yl)amino)methyl)piperidin-1-yl)methyl)piperidin-1-yl)-2-methoxyphenyl)amino)pyrimidin-4-yl)amino)phenyl)-N-methylmethanesulfonamide], in the experiment with EGFR^del19+T790M+C797S, the “DTC” value is recorded as “+ (Protein degradation 20~80%)”. The “LTC” value on EGFR^L858R+T790M+C797S is listed as “++ (Protein degradation > 80%)”.

Turning to `COc1cc(N2CCC(N3CCN(CCOCCOc4cccc5c4C(=O)N(C4CCC(=O)NC4=O)C5=O)CC3)CC2)ccc1Nc1ncc(Cl)c(Nc2ccccc2N(C)S(C)(=O)=O)n1` (centres unmarked) [Compound 13, N-(2-((5-chloro-2-((4-(4-(4-(2-(2-((2-(2,6-dioxopiperidin-3-yl)-1,3-dioxoisoindolin-4-yl)oxy)ethoxy)ethyl)piperazin-1-yl)piperidin-1-yl)-2-methoxyphenyl)amino)pyrimidin-4-yl)amino)phenyl)N-methylmethanesulfonamide], the “DTC” value with EGFR^del19+T790M+C797S was “+ (Protein degradation 20~80%)”. Further, the “LTC” value at EGFR^L858R+T790M+C797S is given as “+ (Protein degradation 20~80%)”.

For the origin of these results see patent US20230322723A1, “COMPOUNDS FOR SUPPRESSING EGFR MUTANT CANCER AND PHARMACEUTICAL USE THEREOF” (J2H BIOTECH INC., priority 2020, published 2023).
